Laboratory results taken from patent publication US6737383B1, “Herbicidal oxadiazolidines” (priority 1999, dated 2004).

Columns and labels:
morningglory = experiment: Test B pre/postemergence morningglory; type: in vivo, Ipomoea hederacea; conditions: for Plant response rating, Morningglory: scale of 0 to 10 where 0 is no effect and 10 is complete control
Method in brief: (§1)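 Test chemicals in a non-phytotoxic solvent mixture with surfactant were sprayed preemergence onto planted seeds and postemergence onto plants 2 to 18 cm tall (1- to 4-leaf stage). After twelve to sixteen days in a greenhouse, injury was visually rated against untreated controls from 0 (no effect) to 10 (complete control).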

smallflower flatsedge = experiment: Test B flood test smallflower flatsedge; type: in vivo, Cyperus difformis
Method in brief: (§2)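 Plants were grown to the 2-leaf stage before treatment with test chemical, then held in a greenhouse for twelve to sixteen days. Injury was visually rated against untreated controls on a 0–10 scale, where 0 is no effect and 10 is complete control.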

pigweed = experiment: Test B pre/postemergence pigweed; type: in vivo, Amaranthus retroflexus; conditions: for Plant response rating, Redroot pigweed: scale of 0 to 10 where 0 is no effect and 10 is complete control
Method in brief: as §1

rape = experiment: Test B pre/postemergence rape; type: in vivo, Brassica napus; conditions: for Plant response rating, Rape: scale of 0 to 10 where 0 is no effect and 10 is complete control
Method in brief: as §1

bedstraw = experiment: Test B pre/postemergence bedstraw; type: in vivo, Galium aparine; conditions: Postemergence
Method in brief: as §1

wheat = experiment: Test B pre/postemergence wheat; type: in vivo, Triticum aestivum; conditions: for Plant response rating, Wheat: scale of 0 to 10 where 0 is no effect and 10 is complete control
Method in brief: as §1

giant foxtail = experiment: Test B pre/postemergence giant foxtail; type: in vivo, Setaria faberii
Method in brief: as §1

cocklebur = experiment: Test B pre/postemergence cocklebur; type: in vivo, Xanthium strumarium
Method in brief: as §1

surinam grass = experiment: Test B pre/postemergence surinam grass; type: in vivo, Brachiaria decumbens
Method in brief: as §1

purple nutsedge = experiment: Test B pre/postemergence purple nutsedge; type: in vivo, Cyperus rotundus; conditions: for Plant response rating, Nutsedge: scale of 0 to 10 where 0 is no effect and 10 is complete control
Method in brief: as §1

duck salad = experiment: Test B flood test duck salad; type: in vivo, Heteranthera limosa
Method in brief: as §2

sugar beet = experiment: Test B pre/postemergence sugar beet; type: in vivo, Beta vulgaris; conditions: for Plant response rating, Sugarbeets: scale of 0 to 10 where 0 is no effect and 10 is complete control
Method in brief: as §1

soybean = experiment: Test B pre/postemergence soybean; type: in vivo, Glycine max; conditions: for Plant response rating, Soybean: scale of 0 to 10 where 0 is no effect and 10 is complete control
Method in brief: as §1

blackgrass = experiment: Test B pre/postemergence blackgrass; type: in vivo, Alopecurus myosuroides
Method in brief: as §1

bamyardgrass = experiment: Test B flood test barnyardgrass; type: in vivo, Echinochloa crus-galli
Method in brief: as §2

wild oat = experiment: Test B pre/postemergence wild oat; type: in vivo, Avena fatua; conditions: for Plant response rating, Wild oats: scale of 0 to 10 where 0 is no effect and 10 is complete control
Method in brief: as §1

[1] = Postemergence, Rate 250 g/ha, scale 0 to 10
[2] = Preemergence, Rate 250 g/ha, scale 0 to 10, 0 is no effect, 10 is complete control
[3] = Preemergence, Rate 500 g/ha, scale 0 to 10, 0 is no effect, 10 is complete control
[4] = Rate 62 g/ha, Postemergence, scale 0 to 10 (0 no effect, 10 complete control)
[5] = Rate 125 g/ha, Postemergence, scale 0 to 10, 0 is no effect, 10 is complete control
[6] = Rate 62 g/ha, flood test species, Pre-emergence, visual evaluation after twelve to sixteen days
[7] = Rate 125 g/ha, under heading Pre-emergence, flood test species, visual evaluation after twelve to sixteen days
[8] = Rate 250 g/ha, Pre-emergence (flood test species), scale 0 to 10, 0 is no effect, 10 is complete control
[9] = Rate 500 g/ha, Pre-emergence, flood test species, scale 0 to 10 (0 no effect, 10 complete control)
[10] = Postemergence, Rate 500 g/ha, scale of 0 to 10 where 0 is no effect and 10 is complete control
[11] = Preemergence, Rate 62 g/ha, scale of 0 to 10 where 0 is no effect and 10 is complete control
[12] = Preemergence, Rate 125 g/ha, scale of 0 to 10 where 0 is no effect and 10 is complete control

CC(C)N(C(=O)n1oc(=O)n(CCCl)c1=O)c1ccccc1 [Compound 469]
Morningglory plant response rating (morningglory; [1]): 10 | Plant response rating, Morningglory (morningglory; Preemergence, Rate 62 g/ha): 0 | Plant response rating, Morningglory (morningglory; Preemergence, Rate 125 g/ha): 0 | Morningglory plant response rating (morningglory; [2]): 0 | Morningglory plant response rating (morningglory; [3]): 1 | Morningglory plant response rating (morningglory; [4]): 9 | Morningglory plant response rating (morningglory; [5]): 9 | Plant response rating, S. Flatsedge (0 to 10 scale, 0 is no effect, 10 is complete control) (smallflower flatsedge; [6]): 0 | S. Flatsedge plant response rating (0 to 10 scale, 0 is no effect, 10 is complete control) (smallflower flatsedge; [7]): 0 | S. Flatsedge plant response rating (smallflower flatsedge; [8]): 0 | S. Flatsedge plant response rating (smallflower flatsedge; [9]): 0 | Redroot pigweed plant response rating (pigweed; [1]): 2 | Plant response rating, Redroot pigweed (pigweed; Preemergence, Rate 62 g/ha): 5 | Plant response rating, Redroot pigweed (pigweed; Preemergence, Rate 125 g/ha): 10 | Redroot pigweed plant response rating (pigweed; [2]): 10 | Redroot pigweed plant response rating (pigweed; [3]): 10 | Redroot pigweed plant response rating (pigweed; [4]): 0 | Redroot pigweed plant response rating (pigweed; [5]): 0 | Rape plant response rating (rape; [1]): 0 | Plant response rating, Rape (rape; Preemergence, Rate 62 g/ha): 0 | Plant response rating, Rape (rape; Preemergence, Rate 125 g/ha): 2 | Rape plant response rating (rape; [2]): 10 | Rape plant response rating (rape; [3]): 10 | Rape plant response rating (rape; [4]): 0 | Rape plant response rating (rape; [5]): 0 | Bedstraw plant response rating (bedstraw; Rate 250 g/ha, scale 0 to 10): 6 | Bedstraw plant response rating (bedstraw; Rate 500 g/ha, scale of 0 to 10 where 0 is no effect and 10 is complete control): 6 | Bedstraw plant response rating (bedstraw; Rate 62 g/ha, scale 0 to 10 (0 no effect, 10 complete control)): 0 | Wheat plant response rating (wheat; [1]): 3 | Plant response rating, Wheat (wheat; Preemergence, Rate 62 g/ha): 0 | Plant response rating, Wheat (wheat; Preemergence, Rate 125 g/ha): 2 | Wheat plant response rating (wheat; [2]): 3 | Wheat plant response rating (wheat; [3]): 6 | Wheat plant response rating (wheat; [4]): 0 | Wheat plant response rating (wheat; [5]): 0 | Giant foxtail plant response rating (giant foxtail; [1]): 9 | Giant foxtail plant response rating (giant foxtail; [10]): 9 | Plant response rating, Giant foxtail (giant foxtail; [11]): 9 | Plant response rating, Giant foxtail (giant foxtail; [12]): 10 | Giant foxtail plant response rating (giant foxtail; [2]): 10 | Giant foxtail plant response rating (giant foxtail; [3]): 10 | Giant foxtail plant response rating (giant foxtail; [4]): 8 | Giant foxtail plant response rating (giant foxtail; [5]): 9 | Cocklebur plant response rating (cocklebur; [1]): 0 | Cocklebur plant response rating (cocklebur; [10]): 3 | Plant response rating, Cocklebur (cocklebur; [11]): 0 | Plant response rating, Cocklebur (cocklebur; [12]): 0 | Cocklebur plant response rating (cocklebur; [2]): 0 | Cocklebur plant response rating (cocklebur; [3]): 0 | Cocklebur plant response rating (cocklebur; [4]): 0 | Cocklebur plant response rating (cocklebur; [5]): 0 | B. signalgrass plant response rating (surinam grass; Postemergence, Rate 250 g/ha, scale 0 to 10, 0 no effect, 10 complete control): 2 | B. signalgrass plant response rating (surinam grass; [10]): 6 | Plant response rating, B. signalgrass (surinam grass; [11]): 3 | Plant response rating, B. signalgrass (surinam grass; [12]): 7 | B. signalgrass plant response rating (surinam grass; [2]): 7 | B. signalgrass plant response rating (surinam grass; [3]): 10 | B. signalgrass plant response rating (surinam grass; [4]): 0 | B. signalgrass plant response rating (surinam grass; [5]): 2 | Nutsedge plant response rating (purple nutsedge; [1]): 0 | Plant response rating, Nutsedge (purple nutsedge; Preemergence, Rate 62 g/ha): 0 | Plant response rating, Nutsedge (purple nutsedge; Preemergence, Rate 125 g/ha): 0 | Nutsedge plant response rating (purple nutsedge; [2]): 0 | Nutsedge plant response rating (purple nutsedge; [4]): 0 | Nutsedge plant response rating (purple nutsedge; [5]): 0 | Plant response rating, Ducksalad (0 to 10 scale, 0 is no effect, 10 is complete control) (duck salad; [6]): 0 | Ducksalad plant response rating (0 to 10 scale, 0 is no effect, 10 is complete control) (duck salad; [7]): 0 | Ducksalad plant response rating (duck salad; [8]): 0 | Ducksalad plant response rating (duck salad; [9]): 0 | Sugarbeets plant response rating (sugar beet; [1]): 2 | Plant response rating, Sugarbeets (sugar beet; Preemergence, Rate 62 g/ha): 6 | Plant response rating, Sugarbeets (sugar beet; Preemergence, Rate 125 g/ha): 8 | Sugarbeets plant response rating (sugar beet; [2]): 8 | Sugarbeets plant response rating (sugar beet; [3]): 10 | Sugarbeets plant response rating (sugar beet; [4]): 0 | Sugarbeets plant response rating (sugar beet; [5]): 0 | Soybean plant response rating (soybean; [1]): 4 | Plant response rating, Soybean (soybean; Preemergence, Rate 62 g/ha): 0 | Plant response rating, Soybean (soybean; Preemergence, Rate 125 g/ha): 0 | Soybean plant response rating (soybean; [2]): 0 | Soybean plant response rating (soybean; [3]): 2 | Soybean plant response rating (soybean; [4]): 0 | Soybean plant response rating (soybean; [5]): 1 | Blackgrass plant response rating (blackgrass; [1]): 9 | Blackgrass plant response rating (blackgrass; [10]): 9 | Plant response rating, Blackgrass (blackgrass; [11]): 6 | Plant response rating, Blackgrass (blackgrass; [12]): 8 | Blackgrass plant response rating (blackgrass; [2]): 9 | Blackgrass plant response rating (blackgrass; [3]): 10 | Blackgrass plant response rating (blackgrass; [4]): 7 | Blackgrass plant response rating (blackgrass; [5]): 7 | Plant response rating, Barnyardgrass (0 to 10 scale, 0 is no effect, 10 is complete control) (bamyardgrass; [6]): 0 | Barnyardgrass plant response rating (0 to 10 scale, 0 is no effect, 10 is complete control) (bamyardgrass; [7]): 0 | Barnyardgrass plant response rating (bamyardgrass; [8]): 0 | Barnyardgrass plant response rating (bamyardgrass; [9]): 0 | Wild oats plant response rating (wild oat; [1]): 3 | Plant response rating, Wild oats (wild oat; Preemergence, Rate 62 g/ha): 7 | Plant response rating, Wild oats (wild oat; Preemergence, Rate 125 g/ha): 7 | Wild oats plant response rating (wild oat; [2]): 10 | Wild oats plant response rating (wild oat; [3]): 10 | Wild oats plant response rating (wild oat; [4]): 0
